Key:
Assay in all cases: relative viability (nuclei count vs DMSO), 5 days (fraction); higher = more cells survive
Pictilisib + Phenformin = compound: CS(=O)(=O)N1CCN(Cc2cc3nc(-c4cccc5[nH]ncc45)nc(N4CCOCC4)c3s2)CC1 [Pictilisib] + N=C(N)NC(=N)NCCc1ccccc1 [Phenformin] (partner 250 µM)
How it was run: (§1)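 After 5 days of treatment, lung cancer cells in 1536-well plates were fixed and stained in a single step (final 0.05% Triton X-100, 1% formaldehyde, 1 ug/ml Hoechst) and their nuclei counted on 4× images. Treatment had been applied by pin tool the day after seeding as one drug alone or as a fixed anchor-drug dose with five library-drug doses (not always all listed) in √10 steps. Relative viability is the nuclei count of treated wells divided by that of vehicle wells, and values are medians of duplicate plates.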

MK-2206 + Crizotinib = compound: NC1(c2ccc(-c3nc4ccn5c(=O)[nH]nc5c4cc3-c3ccccc3)cc2)CCC1 [MK-2206] + C[C@@H](Oc1cc(-c2cnn(C3CCNCC3)c2)cnc1N)c1c(Cl)ccc(F)c1Cl [Crizotinib] (partner 1 µM)
How it was run: as §1

MK-2206 + Bortezomib = compound: NC1(c2ccc(-c3nc4ccn5c(=O)[nH]nc5c4cc3-c3ccccc3)cc2)CCC1 [MK-2206] + CC(C)C[C@H](NC(=O)[C@H](Cc1ccccc1)NC(=O)c1cnccn1)B(O)O [Bortezomib] (partner 0.002 µM)
How it was run: as §1

MK-2206 + Alpelisib = compound: NC1(c2ccc(-c3nc4ccn5c(=O)[nH]nc5c4cc3-c3ccccc3)cc2)CCC1 [MK-2206] + Cc1nc(NC(=O)N2CCC[C@H]2C(N)=O)sc1-c1ccnc(C(C)(C)C(F)(F)F)c1 [Alpelisib] (partner 2 µM)
How it was run: as §1

Pictilisib + Linsitinib = compound: CS(=O)(=O)N1CCN(Cc2cc3nc(-c4cccc5[nH]ncc45)nc(N4CCOCC4)c3s2)CC1 [Pictilisib] + C[C@]1(O)C[C@@H](c2nc(-c3ccc4ccc(-c5ccccc5)nc4c3)c3c(N)nccn32)C1 [Linsitinib] (partner 1 µM)
How it was run: as §1

Row | Cell Line | relative viability (Pictilisib + Phenformin; first compound 0.02 µM) | relative viability (Pictilisib + Phenformin; first compound 0.06325 µM) | relative viability (Pictilisib + Phenformin; first compound 0.6325 µM) | relative viability (Pictilisib + Phenformin; first compound 2 µM) | relative viability (MK-2206 + Crizotinib; first compound 0.01 µM) | relative viability (MK-2206 + Crizotinib; first compound 0.03162 µM) | relative viability (MK-2206 + Crizotinib; first compound 0.3162 µM) | relative viability (MK-2206 + Crizotinib; first compound 1 µM) | relative viability (MK-2206 + Bortezomib; first compound 0.01 µM) | relative viability (MK-2206 + Bortezomib; first compound 0.03162 µM) | relative viability (MK-2206 + Bortezomib; first compound 0.3162 µM) | relative viability (MK-2206 + Bortezomib; first compound 1 µM) | relative viability (MK-2206 + Alpelisib; first compound 0.01 µM) | relative viability (MK-2206 + Alpelisib; first compound 0.03162 µM) | relative viability (MK-2206 + Alpelisib; first compound 0.3162 µM) | relative viability (MK-2206 + Alpelisib; first compound 1 µM) | relative viability (Pictilisib + Linsitinib; first compound 0.02 µM) | relative viability (Pictilisib + Linsitinib; first compound 0.06325 µM) | relative viability (Pictilisib + Linsitinib; first compound 0.6325 µM) | relative viability (Pictilisib + Linsitinib; first compound 2 µM)
1 | SW 900 | 0.617 | 0.554 | 0.417 | 0.191 |  |  |  |  |  |  |  |  |  |  |  |  |  |  |  | 
2 | PC-3 [JPC-3] | 0.493 | 0.539 | 0.487 | 0.405 | 0.973 | 0.98 | 0.946 | 1.03 | 0.812 | 0.94 | 0.841 | 0.805 | 0.985 | 1.01 | 1.02 | 1.04 | 0.985 | 0.945 | 0.97 | 0.893
3 | NCI-H1703 |  |  |  |  | 0.809 | 0.658 | 0.302 | 0.511 | 0.338 | 0.28 | 0.316 | 0.223 | 0.355 | 0.366 | 0.317 | 0.416 | 1.19 | 0.634 | 0.347 | 0.137
4 | EPLC-272H | 0.284 | 0.323 | 0.23 | 0.197 | 0.951 | 0.928 |  | 1.01 | 1.05 | 1.06 |  | 1.01 | 0.993 | 0.851 |  | 0.929 | 1.2 | 1.19 | 0.875 | 0.865
5 | NCI-H1792 | 0.343 | 0.257 | 0.128 | 0.124 | 0.968 | 1 | 0.999 | 0.944 | 0.985 | 1 | 0.979 | 0.923 | 0.673 | 0.652 | 0.706 | 0.773 | 0.502 | 0.547 | 0.446 | 0.262
6 | LK-2 | 0.468 | 0.379 | 0.176 | 0.143 | 0.211 | 0.236 | 0.229 | 0.211 |  |  |  |  | 0.977 | 1.42 | 1.13 | 1.06 | 0.609 | 0.537 | 0.526 | 0.426
7 | NCI-H1395 | 0.453 | 0.425 | 0.386 | 0.399 |  |  |  |  |  |  |  |  | 1.1 | 1.13 | 0.926 | 0.825 | 1.15 | 1.11 | 0.836 | 0.597
8 | NCI-H1944 | 0.206 | 0.184 | 0.137 | 0.141 | 1.16 | 1.16 | 1.02 | 1.07 |  |  |  |  | 0.912 | 0.834 | 0.833 | 0.752 | 1.09 | 1.38 | 0.786 | 0.643
9 | NCI-H522 | 0.749 | 0.676 | 0.613 | 0.603 |  |  |  |  |  |  |  |  |  |  |  |  |  |  |  | 
10 | EBC-1 |  |  |  |  | 0.189 | 0.205 | 0.198 | 0.172 | 0.603 | 0.47 | 0.345 | 0.197 | 0.767 | 0.843 | 0.388 | 0.28 | 1.02 | 0.966 | 0.768 | 0.195
11 | ChaGo-K-1 | 0.438 | 0.529 | 0.42 | 0.33 | 1.08 | 1.11 | 0.961 | 1.14 | 1.09 | 0.993 | 0.924 | 0.763 |  |  |  |  |  |  |  | 
12 | NCI-H1299 |  |  |  |  | 0.957 | 0.963 | 1.06 | 0.94 | 1.04 | 1.02 | 1.09 | 1 | 1.03 | 1.05 | 1.03 | 1.03 | 1.03 | 1.01 | 0.991 | 0.864
13 | NCI-H1623 | 0.646 | 0.61 | 0.54 | 0.274 |  |  |  |  |  |  |  |  |  |  |  |  |  |  |  | 
14 | NCI-H1793 | 0.387 | 0.38 | 0.221 | 0.203 |  |  |  |  |  |  |  |  | 0.721 | 0.816 | 0.634 | 0.727 | 0.829 | 0.819 | 0.554 | 0.336
15 | IA-LM |  |  |  |  |  | 0.867 | 0.807 | 0.819 | 0.868 | 0.928 | 0.887 | 0.699 | 0.809 | 0.869 | 0.578 | 0.544 | 0.482 | 0.7 | 0.757 | 0.249
16 | A549 | 0.235 | 0.177 | 0.155 | 0.0936 | 0.733 | 0.744 | 0.641 | 0.535 |  |  |  |  | 0.841 | 0.791 | 0.534 | 0.529 | 0.674 | 0.606 | 0.476 | 0.307
17 | NCI-H2170 | 0.394 | 0.444 | 0.424 | 0.365 | 1.17 | 1.41 | 1.21 | 1.18 |  |  |  |  | 0.82 | 0.835 | 0.755 | 0.776 |  |  |  | 
18 | Calu-6 |  |  |  |  | 0.717 | 0.856 | 0.786 | 0.729 | 0.991 | 1.08 | 1.01 | 1.15 | 1.13 | 1.01 | 0.994 | 0.909 | 0.981 | 1.02 | 0.868 | 0.829
19 | NCI-H1650 | 0.492 | 0.318 | 0.247 | 0.176 | 0.97 | 1.04 | 1.04 | 0.751 | 0.196 | 0.195 | 0.207 | 0.2 |  |  |  |  |  |  |  | 
20 | NCI-H358 | 0.348 | 0.38 | 0.207 | 0.151 | 0.773 | 0.638 | 0.563 | 0.562 |  |  |  |  | 0.9 | 0.837 | 0.65 | 0.563 | 0.681 | 0.685 | 0.464 | 0.393
21 | SK-MES-1 | 0.692 | 0.686 | 0.621 | 0.558 | 0.953 | 1.02 | 1.04 | 0.816 |  |  |  |  | 0.882 | 1.05 | 0.786 | 0.851 | 1.02 | 1.01 | 0.836 | 0.456
22 | NCI-H2342 | 0.581 | 0.586 | 0.472 | 0.355 |  |  |  |  |  |  |  |  |  |  |  |  |  |  |  | 

Reference: the supplement of paper PMC10307832
